Measurements from EP2208725A1, “Novel specific inhibitors of ubiquitin specific protease 7, the pharmaceutical compositions thereof and their therapeutic applications” (Hybrigenics S.A., priority 2009, dated 2010).

biological target: T1, USP8 (Homo sapiens, UniProt P40818); assay: USP8 activity assay (Ub-AMC); format: biochemical; conditions: 400 nM Ub-AMC, 1.36 nM enzyme; compounds tested from 200 µM to 91 nM; unit inferred; read-out: Inhibition of cysteine protease activities: USP8
T1 construct: His (from pFastBac-HT vector); made in house; host or cells: Insect cells (Sf9 or High Five), baculovirus
T1 sequence (P40818 1-1118): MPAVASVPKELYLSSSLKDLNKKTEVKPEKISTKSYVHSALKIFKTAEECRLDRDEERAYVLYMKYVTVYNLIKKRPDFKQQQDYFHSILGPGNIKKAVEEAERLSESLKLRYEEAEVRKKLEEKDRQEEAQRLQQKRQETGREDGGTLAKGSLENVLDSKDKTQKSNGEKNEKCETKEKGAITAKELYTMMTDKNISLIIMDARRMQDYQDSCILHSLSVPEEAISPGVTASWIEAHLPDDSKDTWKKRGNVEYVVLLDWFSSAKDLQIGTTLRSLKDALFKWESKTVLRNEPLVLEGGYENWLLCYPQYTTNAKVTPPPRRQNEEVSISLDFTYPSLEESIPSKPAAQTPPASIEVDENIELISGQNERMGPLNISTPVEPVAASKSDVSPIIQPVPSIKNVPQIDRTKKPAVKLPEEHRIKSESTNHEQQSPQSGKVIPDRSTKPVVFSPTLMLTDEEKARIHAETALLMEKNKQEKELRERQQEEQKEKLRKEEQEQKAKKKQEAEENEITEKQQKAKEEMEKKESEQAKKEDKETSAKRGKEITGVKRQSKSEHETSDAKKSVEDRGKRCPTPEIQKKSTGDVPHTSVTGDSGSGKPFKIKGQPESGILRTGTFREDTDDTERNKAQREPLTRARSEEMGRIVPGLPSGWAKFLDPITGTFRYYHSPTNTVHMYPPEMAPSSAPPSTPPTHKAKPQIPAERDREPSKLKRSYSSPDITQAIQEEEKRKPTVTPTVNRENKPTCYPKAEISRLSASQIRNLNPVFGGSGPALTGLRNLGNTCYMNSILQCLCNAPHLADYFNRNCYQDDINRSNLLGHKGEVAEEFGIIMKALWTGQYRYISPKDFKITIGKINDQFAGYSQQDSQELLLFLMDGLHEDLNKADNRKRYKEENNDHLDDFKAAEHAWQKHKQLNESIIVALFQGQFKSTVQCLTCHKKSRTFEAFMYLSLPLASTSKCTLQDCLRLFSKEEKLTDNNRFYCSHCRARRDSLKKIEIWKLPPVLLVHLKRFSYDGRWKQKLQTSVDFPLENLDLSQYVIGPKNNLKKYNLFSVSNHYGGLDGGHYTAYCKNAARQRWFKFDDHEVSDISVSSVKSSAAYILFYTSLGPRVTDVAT
Description: The cDNA encoding USP8 was obtained by PCR amplification from placenta mRNA. USP8 cDNA was subcloned by PCR into a baculovirus expression vector (pFastBac-HT; Invitrogen). A cDNA encoding a mutated USP8 was generated by mutagenic PCR. The corresponding protein encodes a cysteine to alanine substitution at residue 786. The sequences were ascertained by sequencing of the entire open reading frame. Bacmids encoding […] were generated following DH10bac transposition. The corresponding bacmids were transfected into insect cells (Sf9). Viruses were recovered from culture supernatant and amplified twice. Insect cells (Sf9 or High Five; Invitrogen) were infected for 72 hours. Total cell lysates were harvested and lyzed in lysis buffer (Tris HCl 50 mM pH7.6; 0.75 % NP40; 500 mM NaCl; 10 % glycerol; 1 mM DTT; 10 mM imidazole; Protease Inhibitor Cocktail; AEBSF 20 µg.ml^-1; Aprotinin 10 µg.ml^-1). Proteins were affinity purified on metal affinity resins (Talon Metal affinity resin; BD Biosciences). Bound materials were extensively washed in wash buffer (50 mM Sodium Phosphate pH 7.0; 300 mM NaCl; 10 mM imidazole; 0.5% Triton X-1 00; 10% glycerol) and eluted from the resin in 250 mM imidazole-containing wash buffer. Proteins were dialyzed in dialysis buffer (Tris HCl pH 7.6 20 mM; NaCl 200 mM; DTT 1 mM; EDTA 1 mM; 10% Glycerol). Proteins purifications were analyzed on 4-12% NuPAGE (Invitrogen).
USP8 was diluted in USP buffer (50 mM Tris HCl; 0.5 mM EDTA; 5 mM DTT; 0.01% Triton X-100; Bovine Serum Albumin 0.05 mg.ml^-1 pH8.8). Compounds stocks (100 mM) were stored at -20°C in DMSO. Compounds were tested at different concentrations: from 200 µM to 91 nM.
Reactions were performed as duplicates in Black LJL 96 well plates (HE microplates; Molecular Devices; 20 µl final reaction volume). The substrate concentration for USP8 was 400 nM Ub-AMC (Boston Biochem). The concentration of the enzyme (USP8) in specificity assays was 1.36 nM. The concentrations were determined in order to perform specificity assays under initial velocities at fixed substrate concentration. Compounds were pre-incubated with enzymes for 30 minutes at 25°C. Reactions were initiated by addition of substrate to the plates containing the enzymes (+/- compounds) diluted in assay buffer. Reactions were incubated for 60 minutes at 37°C. Reactions were stopped by adding acetic acid (100 mM final). Readings were performed on a Pherastar Fluorescent Reader (BMG). λ Emission 380 nm : λ Excitation = 460 nm. Data (mean values +/- standard deviation) were analyzed as % of control (no compound) and plotted as percentage versus the Log of the compound concentration using GraphPad (Prism). Data were fitted to a sigmoidal model (variable slope).

IC50, > 200 µM:
CC(=O)C1=C(O)C(=O)N(CCc2ccc(Cl)cc2)C1c1ccc(Br)cc1 (stereo not shown) [Example 25, 4-acetyl-5-(4-bromo-phenyl)-1-[2-(4-chloro-phenyl)-ethyl]-3-hydroxy-1,5-dihydro-pyrrol-2-one]
CC(=O)C1=C(O)C(=O)N(CCc2ccc(Br)cc2)C1c1ccc(Br)cc1 (stereo not shown) [Example 26, 4-acetyl-5-(4-bromo-phenyl)-1-[2-(4-bromo-phenyl)-ethyl]-3-hydroxy-1,5-dihydro-pyrrol-2-one]
CC(=O)C1=C(O)C(=O)N(CCc2ccc(Cl)c(Cl)c2)C1c1ccc(Br)cc1 (stereo not shown) [Example 28, 4-acetyl-5-(4-bromo-phenyl)-1-[2-(3,4-dichloro-phenyl)-ethyl]-3-hydroxy-1,5-dihydro-pyrrol-2-one]
COc1cccc(CCN2C(=O)C(O)=C(C(C)=O)C2c2ccc(Br)cc2)c1 (stereo not shown) [Example 30, 4-acetyl-5-(4-bromo-phenyl)-3-hydroxy-1-[2-(3-methoxyphenyl)-ethyl]-1,5-dihydro-pyrrol-2-one]
COc1ccc(CCN2C(=O)C(O)=C(C(C)=O)C2c2ccc(Br)cc2)cc1 (stereo not shown) [Example 32, 4-acetyl-5-(4-bromo-phenyl)-3-hydroxy-1-[2-(4-methoxyphenyl)-ethyl]-1,5-dihydro-pyrrol-2-one]
CC(=O)C1=C(O)C(=O)N(CCc2ccc(F)cc2)C1c1ccc(Br)cc1 (stereo not shown) [Example 33, 4-acetyl-5-(4-bromo-phenyl)-3-hydroxy-1-[2-(4-fluorophenyl)-ethyl]-1,5-dihydro-pyrrol-2-one]
CCOc1ccc(CCN2C(=O)C(O)=C(C(C)=O)C2c2ccc(Br)cc2)cc1 (stereo not shown) [Example 34, 4-acetyl-5-(4-bromo-phenyl)-3-hydroxy-1-[2-(4-ethoxy-phenyl)-ethyl]-1,5-dihydro-pyrrol-2-one]
CC(=O)C1=C(O)C(=O)N(CCc2ccccc2)C1c1ccc2c(c1)OCO2 (stereo not shown) [Example 37, 4-acetyl-5-benzo[1,3]dioxol-5-yl-3-hydroxy-1-phenethyl-1,5-dihydro-pyrrol-2-one]
CC(=O)C1=C(O)C(=O)N(CCc2ccccc2)C1c1ccc(Br)c(Br)c1 (stereo not shown) [Example 41, 4-acetyl-5-(3,4-dibromo-phenyl)-3-hydroxy-1-phenethyl-1,5-dihydro-pyrrol-2-one]
CC(=O)C1=C(O)C(=O)N(CCc2ccccc2)C1c1cccnc1Cl (stereo not shown) [Example 42, 4-acetyl-5-(2-chloro-pyridin-3-yl)-3-hydroxy-1-phenethyl-1,5-dihydro-pyrrol-2-one]
CC(=O)C1=C(O)C(=O)N(CCc2ccc(Br)cc2)C1c1ccc(Cl)cc1 (stereo not shown) [Example 45, 4-Acetyl-5-(4-chlorophenyl)-1-[2-(4-bromophenyl)-ethyl]-3-hydroxy-1,5-dihydro-pyrrol-2-one]
CC(=O)C1=C(O)C(=O)N(CCc2ccc(Cl)cc2)C1c1ccc(Cl)cc1 (stereo not shown) [Example 46, 4-Acetyl-5-(4-chlorophenyl)-1-[2-(4-chlorophenyl)-ethyl]-3-hydroxy-1,5-dihydro-pyrrol-2-one]
CC(=O)C1=C(O)C(=O)N(CCc2ccc(Cl)cc2Cl)C1c1ccc(Br)cc1 (stereo not shown) [Example 47, 4-Acetyl-5-(4-bromophenyl)-1-[2-(2,4-dichlorophenyl)-ethyl]-3-hydroxy-1,5-dihydro-pyrrol-2-one]
